Measured values from publication PMC6736568, “Discovery of Novel Anti-cryptosporidial Activities From Natural Products by in vitro High-Throughput Phenotypic Screening” (Frontiers in Microbiology, 2019).
Read-outs that look alike come from different tables or passages of the source.

Assays:
[1] = in vitro; settings: for cytotoxicity at 41 h, 10 µM: human
[2] = tested on: HCT-8 host cells (Hs18S)
[3] = tested on: Cryptosporidium parvum; assay: qRT-PCR assay of the growth of C. parvum in vitro in HCT-8 host cells (primary and secondary screening, EC50); type: cell-based; settings: Cryptosporidium parvum, HCT-8; for inhibition at 10 µM: primary screening at 10 uM, read-out: Inhibition (%); for inhibition at 3.3 µM: secondary screening at 3.3 uM, read-out: % Inhibition (3.3 uM)
[4] = primary screening at 10 uM, treated vs control

SMILES	cytotoxicity at 41 h, 10 µM [1] [%]	Hs18S ΔCT ([2]; human, 41 h, 10 μM)	inhibition at 10 µM [3] [%]	inhibition at 3.3 µM [3] [%]	cytotoxicity at 10 µM [1] [%]	Hs18S ΔCT [2, 4]
CC[C@H]1OC(=O)[C@H](C)[C@@H](O[C@H]2C[C@@](C)(OC)[C@@H](O)[C@H](C)O2)[C@H](C)[C@@H](O[C@@H]2O[C@H](C)C[C@H](N(C)C)[C@H]2O)[C@](C)(O)C[C@@H](C)C(=O)[C@H](C)[C@@H](O)[C@]1(C)O [ERYTHROMYCIN]	35	0.62	94.6	-13		
O=c1ccc2cc(O)c(O)cc2o1 [ESCULETIN]			-23.8		13.5	0.21
C[C@]12CC[C@@H]3c4ccc(O)cc4CC[C@H]3[C@@H]1CC[C@@H]2O [ESTRADIOL]	-13.8	-0.19	22			
C=CCc1ccc(OC)cc1 [ESTRAGOLE]			99.6	15	-16.6	-0.22
C[C@]12CC[C@@H]3c4ccc(O)cc4CC[C@H]3[C@@H]1C[C@@H](O)[C@@H]2O [ESTRIOL]	-8.4	-0.12	14.4			
C[C@]12CC[C@@H]3c4ccc(O)cc4CC[C@H]3[C@@H]1CCC2=O [ESTRONE]	-18.4	-0.24	28.1			
COc1cc([C@@H]2c3cc4c(cc3[C@@H](O[C@@H]3O[C@@H]5CO[C@@H](C)O[C@H]5[C@H](O)[C@H]3O)[C@H]3COC(=O)[C@H]23)OCO4)cc(OC)c1O [ETOPOSIDE]	24.1	0.40	48.5			
CC12CCC(CC1)C(C)(C)O2 [EUCALYPTOL]	-16.4	-0.22	16.2			
C=CCc1ccc(O)c(OC)c1 [EUGENOL]	-28.5	-0.36	3.09			
C=C(C)c1cc2cc(C(C)=O)c(O)cc2o1 [EUPARIN]			19		14.6	0.23
CC(C)=CCC[C@@H](C)[C@@H]1CC[C@]2(C)C3=C(CC[C@@]12C)[C@@]1(C)CC[C@H](O)C(C)(C)[C@@H]1CC3 [EUPHOL]	-22.5	-0.29	-2.84			
COc1cc(C)c(C(=O)O)c(O)c1 [EVERNINIC ACID]	-26.6	-0.34	52.1			
COc1c2ccoc2nc2c(OC)c(OCC(O)C(C)(C)O)ccc12 (centres unmarked) [EVOXINE]	7	0.11	-7.37			
CC(C)=CCC/C(C)=C/CC/C(C)=C/CO [FARNESOL]	1	0.02	8.75			
COC(=O)C[C@H]1C(C)(C)[C@@H](OC(C)=O)[C@@H]2CC3=C4CC(=O)O[C@@H](c5ccoc5)[C@]4(C)CC[C@@H]3[C@@]1(C)C2=O [FISSINOLIDE]	-75.3	-0.81	-39.8			
Nc1nc2ncc(CNc3ccc(C(=O)N[C@@H](CCC(=O)O)C(=O)O)cc3)nc2c(=O)[nH]1 [FOLIC ACID]	1.3	0.02	3.63			
COc1ccc(-c2coc3cc(O)ccc3c2=O)cc1 [FORMONONETIN]	-53.6	-0.62	13.2			

SMILES	cytotoxicity at 41 h, 10 µM [1] [%]	Hs18S ΔCT ([2]; human, 41 h, 10 μM)	inhibition at 10 µM [3] [%]	inhibition at 3.3 µM [3] [%]	cytotoxicity at 10 µM [1] [%]	Hs18S ΔCT [2, 4]
COc1cc2ccc(=O)oc2c(OC)c1OC [FRAXIDIN METHYL ETHER]			-37.3		-39.5	-0.48
C[C@H]1C(=O)CC[C@@H]2[C@]1(C)CC[C@H]1[C@@]2(C)CC[C@@]2(C)[C@@H]3CC(C)(C)CC[C@]3(C)CC[C@]12C [FRIEDELIN]			20.8		-17.6	-0.23
Cc1cc(O)c(C=O)c2c1C(=O)Oc1c(COC(=O)/C=C/C(=O)O)c(O)c(C(=O)O)c(C)c1O2 [FUMARPROTOCETRARIC ACID]	6.9	0.10	-5.48			
CC(=O)O[C@H]1C[C@@]2(C)[C@@H](C[C@@H](O)[C@H]3[C@@]4(C)CC[C@@H](O)[C@@H](C)[C@@H]4CC[C@@]32C)/C1=C(\CCC=C(C)C)C(=O)O [FUSIDIC ACID]	-23.2	-0.30	-82.8			
O=c1c(O)c(-c2ccccc2)oc2cc(O)cc(O)c12 [GALANGIN]			-14.9		23.6	0.39
COc1ccc2c3c1O[C@H]1C[C@@H](O)C=C[C@@]31CCN(C)C2 [GALANTAMINE]			2.66		-26.2	-0.34
COC(=O)c1c(OC)cc2c(c1C)Oc1c(Cl)c(O)c(Cl)c(C)c1C(=O)O2 [GANGALEOIDIN]	-3.3	-0.05	-21.6			
CC(C)=CCCC1(C)C=Cc2c(O)c3c(c(CC=C(C)C)c2O1)OC12C(=CCCC1C(C)(C)O[C@@]2(C/C=C(\C)C(=O)O)C(=O)O)C3=O (some centres unmarked) [GARCINOLIC ACID]	22	0.36	-51.3			
COc1ccc(-c2cc(=O)c3c(O)c(OC)c(OC)c(OC)c3o2)cc1 [GARDENIN B]	16	0.25	53.6			
CC(=O)O[C@@H]1C[C@H]2C(C)(C)C(=O)C=C[C@]2(C)[C@H]2CC[C@@]3(C)[C@H](c4ccoc4)OC(=O)[C@H]4O[C@]43[C@@]21C [GEDUNIN]	1.2	0.02	6.58			
CN[C@@H]1[C@@H](O)[C@@H](O[C@@H]2[C@@H](O)[C@H](O[C@H]3O[C@H]([C@@H](C)O)[C@@H](O)[C@H](O)[C@H]3N)[C@@H](N)C[C@H]2N)OC[C@]1(C)O [GENETICIN]			-26.1		4.9	0.07
O=c1c(-c2ccc(O)cc2)coc2cc(O)cc(O)c12 [GENISTEIN]			6.85		12.7	0.20
COc1cc(O)c2c(=O)cc(-c3ccc(O)cc3)oc2c1 [GENKWANIN]			-9.13		-77.7	-0.83
C=C1C[C@]23C[C@@]1(O)CC[C@H]2[C@@]12C=C[C@H](O)[C@@](C)(C(=O)O1)[C@H]2[C@@H]3C(=O)O [GIBBERELLIC ACID]			32.7		5.9	0.09
C[C@@H]1C(=O)O[C@H]2C[C@@]34[C@H]5C[C@@H](C(C)(C)C)[C@]36[C@@H](OC(=O)[C@@H]6O)O[C@@]4(C(=O)O5)[C@]21O [GINKGOLIDE A]			37.5		6.6	0.10
C[C@H]1O[C@@H](O[C@H]2[C@@H](O)C[C@H](O[C@H]3[C@@H](O)C[C@H](O[C@H]4CC[C@@]5(C)[C@H](CC[C@@H]6[C@@H]5CC[C@]5(C)[C@@H](C7=CC(=O)OC7)[C@@H](O)C[C@]65O)C4)O[C@@H]3C)O[C@@H]2C)C[C@H](O)[C@@H]1O [GITOXIN]			35.4		5.4	0.08
OC[C@@H](O)[C@@H](O[C@@H]1O[C@H](CO)[C@@H](O)[C@H](O)[C@H]1O)[C@H](O)[C@@H](O)CO [GLUCITOL-4-GUCOPYANOSIDE]	-14.4	-0.19	4.89			
